Read-outs that look alike come from different tables or passages of the source.
Key:
human cardiomyocytes = settings: cited from earlier work
zebrafish cardiomyocytes = settings: 1 μM, data from Nemtsas et al. 2010; cited from earlier work
hiPSC-CMs = experiment: Conduction velocity computed from measurements of the extracellular potential in a collection of hiPSC-CMs; assay type: cell-based, human; settings: doses 1-10 μM
Procedure: From the U data 430, we include the value at each time point and each electrode (see (14)), and the conduction velocity is computed using the time points in which U crosses 0 mV after the peak in different electrodes (see (15) and FIG. 1). Given that U is measured at each electrode, another metric can be the time tcv for the U data 430 to go back to zero. Another metric uses the measurements at each of the time points (shown as separate dots 432; a sum of the square of the differences (or absolute value) between the model output and measured values can be summed.
where cv denotes the conduction velocity (in cm/s) computed from U recorded in the electrodes. More specifically, the conduction velocity is computed as the distance between the center of the two electrodes marked as a and b in FIG. 1 divided by the time between U crosses 0 mV after the peak in these two electrodes (see FIG. 4). The two electrodes used could be any two electrodes in the simulation.
One of the advantages of including measurements of the extracellular potential in addition to optical measurements of V and Ca in the inversion procedure is that the extracellular measurements can be used to estimate the conduction velocity of the cell collection. This information could be useful for determining drug effects on the INa current (see FIG. 6). […]

dog cardiomyocytes = settings: 50 nM, paced at 1 Hz, data from Jost et al. 2013; cited from earlier work
[1] = tested on: rabbit ventricular myocyte; settings: data from Baczkó et al. 2016, cited from earlier work
[2] = 1 μM, data from Bussek et al. (B)
[3] = 1 μM, data from Jost et al. 2005 (J)
[4] = 50 nM, paced at 1 Hz, data from Jost et al. 2013
[5] = 30 μM, data from Baczkó et al. 2016 (B)
[6] = 30 μM, data from Orvos et al. 2019 (O)

Cc1cccc(CCN2CCC(C(=O)c3ccc(NS(C)(=O)=O)cc3)CC2)n1 [E-4031]
APD50, Human, drug measured (B) (change vs control) (human cardiomyocytes; [2]): +27.7% | APD90, Human, drug measured (B) (change vs control) (human cardiomyocytes; [2]): +31.2% | APD50, Human drug measured (J) (change vs control) (human cardiomyocytes; [3]): +54.2% | APD90, Human drug measured (J) (change vs control) (human cardiomyocytes; [3]): +65.1% | APD50, Zebrafish drug measured (change vs control) (zebrafish cardiomyocytes): +38.7% | APD90, Zebrafish drug measured (change vs control) (zebrafish cardiomyocytes): +24.1%

O=C(NCC1CCCCN1)c1cc(OCC(F)(F)F)ccc1OCC(F)(F)F (stereo not drawn) [Flecainide]
Effect of increasing drug dose on conduction velocity (hiPSC-CMs): the conduction velocity is decreased

CN(CCOc1ccc(NS(C)(=O)=O)cc1)CCc1ccc(NS(C)(=O)=O)cc1 [dofetilide]
APD50, Human, drug measured (change vs control) (human cardiomyocytes; [4]): +33.3% | APD90, Human, drug measured (change vs control) (human cardiomyocytes; [4]): +44.3% | APD50, Dog, drug measured (change vs control) (dog cardiomyocytes): +17.5%

CC(C)NCC(O)c1ccc(NS(C)(=O)=O)cc1 (stereo not drawn) [sotalol]
APD50, Human, drug measured (B) (change vs control) (human cardiomyocytes; [5]): +32.3% | APD90, Human, drug measured (B) (change vs control) (human cardiomyocytes; [5]): +37.5% | APD50, Human, drug measured (O) (change vs control) (human cardiomyocytes; [6]): +20.6% | APD90, Human, drug measured (O) (change vs control) (human cardiomyocytes; [6]): +28.2% | APD50, Rabbit, drug measured (change vs control) ([1]; 10 μM): +21.2% | APD90, Rabbit, drug measured (change vs control) ([1]; 10 μM): +19.6% | APD50, Rabbit, drug measured (change vs control) ([1]; 52 μM): +54.3% | APD90, Rabbit, drug measured (change vs control) ([1]; 52 μM): +54.1%

From US20230194505A1, “DETERMINING DRUG EFFECTS USING COMBINATION OF MEASUREMENTS” (Organos, Inc., priority 2020, published 2023)
